Results taken from a melting point compilation (Tetko et al.; mined from patent text by program, amines drawn as free bases though some values may be those of a salt).

Compound | melting point [°C]
O[C@H](COc1cccc2[nH]ccc12)CN1CC=C(c2c[nH]c3c(Cl)c(Cl)ccc23)CC1 | 140 to 145
CCCCc1ncc(C=CC(=O)O)n1Cc1ccccc1Cl | 178 to 179
Cc1nc(-n2cc(CCCc3ccccc3)nn2)sc1C(=O)NCc1ccccc1 | 94 to 97
NC(=O)c1cc2c3ccccc3n(Cc3ccccc3)c2s1 | 207
COc1nnc2n1C=Cc1cc(C)ccc1C2 | 148 to 149
CS(=O)(=O)N1CC(=O)c2ccsc2C1 | 120
CC(=O)NCCC1CCc2ccc3nc(C)oc3c21 (stereo not given) | 93 to 95
CCCc1c(C(C)=NO)c2ccc(C(N)=O)cc2n1Cc1ccccc1Cl | 212 to 216
CCn1c(=O)c(=O)[nH]c2cc(-n3cccc3)c([N+](=O)[O-])cc21 | 248 to 250
O=C(NCCOc1ccc(CC(Oc2ccc(C(F)(F)F)cc2)C(=O)O)cc1)c1ccc(-c2ccccn2)cc1 (stereo not given) | 154 to 155
CC(=O)C(=[N+]=[N-])C(=O)NCCO | 69 to 70
Nc1cccc(-c2ccc(CCN3CCN(c4nccn4-c4ccccc4)CC3)cc2)n1 | 140 to 142
Cc1oc(-c2ccccc2)nc1COc1ccc(COc2ccc(CC(=O)O)cc2)cc1 | 166 to 167
CCOC(=O)CNc1c(C)cc(C(O)(C(F)(F)F)C(F)(F)F)cc1C | 91 to 93
COc1cccc2c3c([nH]c12)C(=O)N=NC3=O | > 260
CNCCCN(C)C(=O)[C@@H]1CCCN1S(=O)(=O)c1ccc(Cl)c(COc2cccc3c(-n4ccnc4)cc(C)nc23)c1Cl | 125
COc1cccc(CN2CCN(CCCOc3ccc4c(C)cc(=O)[nH]c4c3)CC2)c1 | 149 to 150
CCOC(=O)c1cc2c(C)c(C)cc(NS(=O)(=O)c3cccs3)c2[nH]1 | 161 to 162
c1ccc(OCCCCN2CCNCC2)cc1 | 35 to 36
O=[N+]([O-])c1c(Cl)cccc1-c1nn(CO)cc1Cl | 146
CN1CCc2cc(S(=O)(=O)NC(=O)Nc3ccc(Cl)cc3)ccc21 | 145 to 147
CCOC(=O)c1ccc(-c2ccc(N(c3ccc(-c4ccccc4)cc3)c3ccc(-c4ccc(C(=O)OCC)cc4)cc3)cc2)cc1 | 200 to 201
CN1CC(CCn2cccn2)Oc2ncccc2C1=O (stereo not given) | 132 to 134
Cc1ccccc1NC(=O)C1Sc2ccccc2N(C)C1=O (stereo not given) | 187 to 188

Compound | melting point [°C]
CCOC(=O)CC(O)CC(O)C=Cc1c(C(C)C)oc(-c2ccccc2)c1-c1ccc(F)cc1 (stereo not given) | 98 to 100
CNc1nc2c(c(N3CCN(C=O)CC3)n1)SCCC2 | 149 to 151
CN(N)C1=Nc2ccc(Cl)cc2C(c2ccccc2)=NC1 | 167 to 173
COc1ccc(-c2cc(SC(F)(F)F)[nH]c2-c2ccc(OC)cc2)cc1 | 114 to 115
CCN(CC)c1cc2c(cc1C)Nc1c(cc(NC(=O)c3ccc(OC)cc3)c3ncn(-c4ccc(OC)cc4)c13)O2 | 189 to 192
CC(=O)NCc1ccc(C(=O)CCCN2CCC(c3noc4cc(F)ccc34)CC2)s1 | 140 to 142
CCCc1nc2c(N)nc3cc(-c4ccc(F)cc4CN)ccc3c2s1 | 181 to 184
COC(CBr)(CCCC(=O)NN)OC | 58 to 60
N#CC(=NO)c1cccc(Oc2ccccc2)c1 | 124 to 125
COc1nc(C(F)(F)F)c(F)c(=O)n1-c1cc(C(=O)O)c(Cl)cc1F | 199 to 201
CCOc1ccc(OCCN2CCN(c3cc(Cl)nnc3Cl)CC2)cc1 | 93 to 95
Cc1ccccc1-n1ccc2c(NCCO)nc3c(C)cccc3c21 | 187 to 188
CCOC(=O)C(C#N)=Cc1ccc(OC)c2c1CC(C)(C)O2 | 112 to 117
c1ccc2c(c1)CCN(Cc1cc3ccccc3[nH]1)C2 | 129 to 131
Cc1ccc(N(C(=O)CCl)c2c(C)cccc2Cl)cc1 | 113 to 114
COc1nc(C(F)(F)F)cc(=O)n1-c1cc(O)c(Cl)cc1F | 147 to 149
COc1ccc(C(NCC(=O)Nc2c(C(C)C)cccc2C(C)C)c2ccccc2)cc1 (stereo not given) | 117 to 118
Cc1ccc(N2C(=O)C(O)=C(C(=O)c3ccc(-c4ccccc4)cc3)C2c2ccc(OC(F)(F)F)cc2)nn1 (stereo not given) | 226 to 232
Fc1ccc(-c2cc(Cl)nc3ccccc23)cc1 | 118
CCOC(=O)c1cn(-c2nonc2C)c2cc(F)c(F)cc2c1=O | 178 to 180
O=S(CCCCCOc1ccc(C2=C(c3ccccc3)CCCc3cc(O)ccc32)cc1)Cc1cccs1 (stereo not given) | 174 to 177
O=C(O)c1cccnc1NCc1ccc(Cl)cc1 | 240 to 242
Cc1c(O)ccc2c(=O)c(-c3ccc([N+](=O)[O-])cc3)coc12 | 345
Oc1cccc(CCc2nc(-c3ccccc3)c(-c3ccccc3)s2)c1 | 166 to 168

Compound | melting point [°C]
O=S(=O)(Nc1ccc2c(OCc3coc(-c4ccc(Br)cc4)n3)cccc2c1)C(F)(F)F | 205 to 207
O=C1NCCCN1c1cc(C(c2cc(F)ccc2F)S(=O)(=O)c2ccc(Cl)cc2)c(Cl)cn1 (stereo not given) | > 230
COc1ccc(-c2nc(S(C)(=O)=O)ncc2C(=O)N2CCOCC2)cc1OC | 77
O=S1c2ccccc2N(CCCCl)c2ccccc21 | 171 to 173
CCOC(=O)c1c(-c2cccc(C)c2)oc(Cl)c(Cl)c1=O | 113
COC(=O)c1cc(C=O)ccc1OCc1nc(-c2ccco2)oc1C | 121 to 122
COc1ccc(N2C(=O)C(OC)C2c2ccc(C(=O)O)cc2)cc1 (stereo not given) | 233
CCOC(=O)c1ccc(COCc2csc3nc(C(=O)NCc4cccc(CS(C)=O)c4)[nH]c(=O)c23)cc1 (stereo not given) | 195 to 196
COc1cc(OC)nc(-n2nc(C)n(N)c2=O)n1 | 219
COc1ccc(Cn2nc(-c3ccc(S(C)=O)cc3)c(-c3ccc(F)cc3)cc2=O)cc1 (stereo not given) | 81.3 to 81.5
Cc1ccccc1NC(=O)CI | 145 to 146
COC(=O)c1cc(C(=O)c2c(C)c(NS(=O)(=O)c3cccc(OC)c3)c3ccccn23)ccc1NC(=O)C(F)(F)F | 220
COC(C)=CC(=O)Nc1cccc(N)c1 | 132
C=CCN1C(=O)C(C)(C)c2ccc(-c3nc4ccccc4[nH]3)cc21 | 197 to 200
Nc1cc(=O)n(Cc2ccc(Cl)cc2Cl)[nH]1 | 189
O=C(Nc1ccc(CN2C(=O)[C@H]3CCC[C@H]3Nc3ccccc32)cc1)OCc1ccccc1 (relative stereo) | 162
CS(=O)c1ccc(-c2nn(CC3CC3)c(=O)cc2-c2ccc(Cl)cc2)cc1 (stereo not given) | 152
O=C(Nc1ccc2cc(CN3CCCC3)ccc2c1)c1ccc(-c2ccc(Cl)cc2)nc1 | 270 to 274
COC(=O)CCCCCCC1C(=O)Cc2cc(OC)ccc21 (stereo not given) | 33.5 to 35
CC(C)(Cc1ccc(OCC(=O)O)cc1)NS(=O)(=O)c1ccc(Cl)cc1 | 177 to 178
CC(C)C[C@H](NC(=O)OC1CCCCC1)C(=O)N[C@@H](Cc1ccccc1)C(=O)CSCc1ccco1 | 102 to 103
Cc1[nH]c(C(N)=O)c(C)c1-c1ccnc(Nc2ccc(F)cc2)n1 | 93.5 to 96.8
